Publication PMC11378297, “Discovery and Profiling of New Multimodal Phenylglycinamide Derivatives as Potent Antiseizure and Antinociceptive Drug Candidates” (ACS Chemical Neuroscience, 2024)
Where two headings read alike, the source gives them in different places.

Columns and labels:
[1] = tested on: 6 Hz (44 mA) seizures, mice; assay: 6 Hz (44 mA) seizure test; type: in vivo; conditions: Mus musculus, ip, pretreatment time 0.5 h
From the text: Both the aforementioned parameters (ED50 and TD50) enabled the calculation of protective indexes (PIs), which reflect the comparative the benefit–risk ratio of these experimental therapeutic agents.
Four mice per group were randomly assigned to each experimental group in the initial screening experiments (each mouse was used just once). Four groups, each with eight animals, received injections of different doses of the investigated substances in order to determine the ED50 or TD50 values. The PIs for the compounds investigated and reference ASMs were calculated by dividing the TD50 value, as determined in the chimney test by the respective ED50 value, as determined in the MES, scPTZ, or 6 Hz (32 mA or 44 mA) tests (PI = TD50/ED50). The PIs are a measure of the potential therapeutic window of the tested agent.
All substances were suspended in Tween 80 (1% aqueous solution) and administered i.p. as a single injection at a volume of 10 mL/kg. On each day of experimentation, fresh solutions were prepared.

[2] = target: T1, TRPA1 (h) (Homo sapiens, UniProt O75762); assay: TRPA1 (h) cell based antagonist calcium flux assay; conditions: HEK293, human recombinant HEK-293 cell, read-out: % inhibition of control agonist response
T1 construct: Eurofins
Experimental: Using previously described testing methodologies, binding/functional tests were conducted on a commercial basis at Eurofins Laboratories (Poitiers, France) and Eurofins Panlabs Discovery Services Taiwan, Ltd. (New Taipei City, Taiwan); see Table S9 for more information.
Table S9. Radioligand binding and functional assays. […]
TRPA1 (h) transient potential ion channel cell based antagonist calcium flux assay […]
Assays were performed commercially in Eurofins Laboratories (Poitiers, France) or Eurofins Panlabs Discovery Services
Taiwan, Ltd. (New Taipei City, Taiwan).

[3] = target: T2, Voltage-Gated Sodium channel hNav1.3 (Homo sapiens, UniProt Q9NY46); assay: human sodium ion channel cell based automated patch clamp assay, hNav1.3
T2 construct: Eurofins Discovery (St. Charles, MO, USA)
Experimental: (§1) Therefore, as a part of the more detailed functional characterization using automated patch clamp method, we tested the influence of (R)-32 on sodium currents mediated by several Navx channels comprising 5 different human subunits, namely, Nav1.1, Nav1.2, Nav1.3, Nav1.6, and Nav1.7, which are involved in both seizure and/or pain modulation.[74],[80],[81] As summarized in Tables S4–S8, (R)-32 starting from 10 μM effectively and in concentration-dependent manner decreased sodium currents mediated by all aforementioned sodium channel subunits. Furthermore, (R)-32 appeared to bind exclusively to sodium channels that are in an inactivated state (see pulse 2 in Tables S4–S8), but not to the channels that are in an open state (pulse 1) (for additional details, see Supporting Information).
(§2) Human sodium ion channels cell based automated patch clamp assay
(§3) Human sodium ion channels cell based automated patch clamp assays: sodium channels exist in, a) a resting or closed state at -120 mV, b) a transient open state that inactivates to c) inactivated state at -10 mV. Sodium current inhibition within 1-2 ms of channel opening at 0 mV is open channel inhibition (pulse 1). In order to completely inactivate the sodium channels and facilitate inactivated state-dependent binding of the drug, the channels were kept at […] ( -10 mV) longer (pulsed for 500 ms) and then stepped back to -120 mV for 10 ms to recover from inactivation into resting or closed state (but the channels that had drug bound to them will not recover from inactivation and will not open) before stepping to -10 mV for 50 ms (pulse 2) to mea sure sodium channels that are available to open. The higher inhibition seen at pulse 2 is due to inactivated state -dependent inhibition. Pulse 1 and 2 are used to investigate drug binding to the open state and inactivated state of the Na channels, respectively. Each concentration of compound is applied for 5 minutes. The results obtained for (R)-32 are summerized in Tables S4–S8. […]
(§4) Compound Concentration Measurement % Inhibition
(§5) Data interpretation: Results showing inhibition greater than 50% are considered to represent significant effects of test compound and have been bolded for (R)-32 for better visualization. The studies were carried out in Eurofins Discovery (St. Charles, MO, USA).

[4] = target: T3, Voltage-Gated Sodium channel hNav1.1 (Homo sapiens, UniProt P35498); assay: human sodium ion channel cell based automated patch clamp assay, hNav1.1
T3 construct: Eurofins Discovery (St. Charles, MO, USA)
Experimental: as §1, §2
Human sodium ion channels cell based automated patch clamp assays: sodium channels exist in, a) a resting or closed state at -120 mV, b) a transient open state that inactivates to c) inactivated state at -10 mV. Sodium current inhibition within 1-2 ms of channel opening at 0 mV is open channel inhibition (pulse 1). In order to completely inactivate the sodium channels and facilitate inactivated state-dependent binding of the drug, the channels were kept at […] ( -10 mV) longer (pulsed for 500 ms) and then stepped back to -120 mV for 10 ms to recover from inactivation into resting or closed state (but the channels that had drug bound to them will not recover from inactivation and will not open) before stepping to -10 mV for 50 ms (pulse 2) to mea sure sodium channels that are available to open. The higher inhibition seen at pulse 2 is due to inactivated state -dependent inhibition. Pulse 1 and 2 are used to investigate drug binding to the open state and inactivated state of the Na channels, respectively. Each concentration of compound is applied for 5 minutes. The results obtained for (R)-32 are summerized in Tables S4–S8.
Table S4. Effect of the (R)-32 on subunit Nav1.1.
Voltage-Gated Sodium channel hNav1.1
as §4, §5

[5] = target: T4, Voltage-Gated Sodium channel hNav1.6 (Homo sapiens, UniProt Q9UQD0); assay: human sodium ion channel cell based automated patch clamp assay, hNav1.6
T4 construct: Eurofins Discovery (St. Charles, MO, USA)
Experimental: as §1, §2, §3, §4, §5

[6] = hNav1.3, Pulse 1 (open state), read-out: % Inhibition Mean
[7] = hNav1.3, Pulse 1 (open state), read-out: % Inhibition n1
[8] = hNav1.3, Pulse 1 (open state), read-out: % Inhibition n2
[9] = hNav1.3, Pulse 2 (inactivated state), read-out: % Inhibition Mean
[10] = hNav1.3, Pulse 2 (inactivated state), read-out: % Inhibition n1
[11] = hNav1.3, Pulse 2 (inactivated state), read-out: % Inhibition n2
[12] = hNav1.1, Pulse 1 (open state), read-out: % Inhibition Mean
[13] = hNav1.1, Pulse 1 (open state), read-out: % Inhibition n1
[14] = hNav1.1, Pulse 1 (open state), read-out: % Inhibition n2
[15] = hNav1.1, Pulse 2 (inactivated state), read-out: % Inhibition Mean
[16] = hNav1.1, Pulse 2 (inactivated state), read-out: % Inhibition n1
[17] = hNav1.1, Pulse 2 (inactivated state), read-out: % Inhibition n2
[18] = hNav1.6, Pulse 1 (open state), read-out: % Inhibition Mean
[19] = hNav1.6, Pulse 1 (open state), read-out: % Inhibition n1
[20] = hNav1.6, Pulse 1 (open state), read-out: % Inhibition n2
[21] = hNav1.6, Pulse 2 (inactivated state), read-out: % Inhibition Mean
[22] = hNav1.6, Pulse 2 (inactivated state), read-out: % Inhibition n1
[23] = hNav1.6, Pulse 2 (inactivated state), read-out: % Inhibition n2

T4 sequence (Q9UQD0 whole entry): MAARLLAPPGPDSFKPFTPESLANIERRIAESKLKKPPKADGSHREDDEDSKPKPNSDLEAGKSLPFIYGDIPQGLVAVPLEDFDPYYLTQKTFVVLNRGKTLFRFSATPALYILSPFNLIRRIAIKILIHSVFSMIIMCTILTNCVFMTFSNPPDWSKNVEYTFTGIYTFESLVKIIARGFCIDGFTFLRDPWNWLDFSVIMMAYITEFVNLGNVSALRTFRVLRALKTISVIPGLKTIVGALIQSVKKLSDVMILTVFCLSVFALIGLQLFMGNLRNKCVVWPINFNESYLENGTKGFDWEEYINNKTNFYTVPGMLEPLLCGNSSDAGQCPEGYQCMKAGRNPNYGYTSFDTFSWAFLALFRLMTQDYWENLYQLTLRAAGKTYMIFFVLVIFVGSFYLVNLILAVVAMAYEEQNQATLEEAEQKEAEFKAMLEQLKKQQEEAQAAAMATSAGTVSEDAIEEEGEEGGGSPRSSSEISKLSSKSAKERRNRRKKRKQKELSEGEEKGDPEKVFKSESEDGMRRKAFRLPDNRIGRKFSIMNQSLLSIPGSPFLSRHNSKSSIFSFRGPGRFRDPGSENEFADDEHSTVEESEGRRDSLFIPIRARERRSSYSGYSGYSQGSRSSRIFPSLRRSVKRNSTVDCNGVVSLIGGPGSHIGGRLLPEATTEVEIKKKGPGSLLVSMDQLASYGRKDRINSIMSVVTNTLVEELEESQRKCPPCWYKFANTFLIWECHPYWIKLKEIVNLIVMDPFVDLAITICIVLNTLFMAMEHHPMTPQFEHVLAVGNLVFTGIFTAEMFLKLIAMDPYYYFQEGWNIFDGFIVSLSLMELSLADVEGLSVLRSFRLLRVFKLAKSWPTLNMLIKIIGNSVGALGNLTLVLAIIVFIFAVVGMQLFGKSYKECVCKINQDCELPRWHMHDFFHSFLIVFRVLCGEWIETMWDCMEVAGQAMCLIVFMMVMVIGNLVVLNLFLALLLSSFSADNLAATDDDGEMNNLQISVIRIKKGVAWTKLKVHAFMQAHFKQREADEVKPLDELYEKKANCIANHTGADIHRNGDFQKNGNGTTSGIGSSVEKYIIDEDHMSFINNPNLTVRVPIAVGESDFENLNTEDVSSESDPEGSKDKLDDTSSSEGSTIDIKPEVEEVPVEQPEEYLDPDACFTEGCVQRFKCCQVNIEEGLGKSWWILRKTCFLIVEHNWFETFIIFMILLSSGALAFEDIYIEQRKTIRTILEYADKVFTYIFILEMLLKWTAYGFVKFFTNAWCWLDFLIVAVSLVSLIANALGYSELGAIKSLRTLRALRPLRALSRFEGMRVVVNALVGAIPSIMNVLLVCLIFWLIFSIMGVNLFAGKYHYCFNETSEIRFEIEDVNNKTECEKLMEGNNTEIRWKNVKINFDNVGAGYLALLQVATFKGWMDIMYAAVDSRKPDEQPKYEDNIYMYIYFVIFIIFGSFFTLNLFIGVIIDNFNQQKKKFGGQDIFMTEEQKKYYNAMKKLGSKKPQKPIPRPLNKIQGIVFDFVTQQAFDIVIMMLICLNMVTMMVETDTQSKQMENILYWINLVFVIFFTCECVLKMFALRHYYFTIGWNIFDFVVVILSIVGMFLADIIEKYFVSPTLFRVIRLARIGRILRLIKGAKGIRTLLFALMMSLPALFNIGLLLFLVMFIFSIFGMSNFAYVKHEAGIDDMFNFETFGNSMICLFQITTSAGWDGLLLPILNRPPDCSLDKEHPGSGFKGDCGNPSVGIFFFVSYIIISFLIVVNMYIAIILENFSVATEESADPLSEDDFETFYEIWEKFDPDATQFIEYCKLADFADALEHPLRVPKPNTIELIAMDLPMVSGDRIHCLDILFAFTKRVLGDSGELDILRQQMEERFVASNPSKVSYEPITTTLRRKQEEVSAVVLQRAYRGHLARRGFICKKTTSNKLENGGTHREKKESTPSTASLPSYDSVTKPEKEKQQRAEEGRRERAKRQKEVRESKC
T2 sequence (Q9NY46 whole entry): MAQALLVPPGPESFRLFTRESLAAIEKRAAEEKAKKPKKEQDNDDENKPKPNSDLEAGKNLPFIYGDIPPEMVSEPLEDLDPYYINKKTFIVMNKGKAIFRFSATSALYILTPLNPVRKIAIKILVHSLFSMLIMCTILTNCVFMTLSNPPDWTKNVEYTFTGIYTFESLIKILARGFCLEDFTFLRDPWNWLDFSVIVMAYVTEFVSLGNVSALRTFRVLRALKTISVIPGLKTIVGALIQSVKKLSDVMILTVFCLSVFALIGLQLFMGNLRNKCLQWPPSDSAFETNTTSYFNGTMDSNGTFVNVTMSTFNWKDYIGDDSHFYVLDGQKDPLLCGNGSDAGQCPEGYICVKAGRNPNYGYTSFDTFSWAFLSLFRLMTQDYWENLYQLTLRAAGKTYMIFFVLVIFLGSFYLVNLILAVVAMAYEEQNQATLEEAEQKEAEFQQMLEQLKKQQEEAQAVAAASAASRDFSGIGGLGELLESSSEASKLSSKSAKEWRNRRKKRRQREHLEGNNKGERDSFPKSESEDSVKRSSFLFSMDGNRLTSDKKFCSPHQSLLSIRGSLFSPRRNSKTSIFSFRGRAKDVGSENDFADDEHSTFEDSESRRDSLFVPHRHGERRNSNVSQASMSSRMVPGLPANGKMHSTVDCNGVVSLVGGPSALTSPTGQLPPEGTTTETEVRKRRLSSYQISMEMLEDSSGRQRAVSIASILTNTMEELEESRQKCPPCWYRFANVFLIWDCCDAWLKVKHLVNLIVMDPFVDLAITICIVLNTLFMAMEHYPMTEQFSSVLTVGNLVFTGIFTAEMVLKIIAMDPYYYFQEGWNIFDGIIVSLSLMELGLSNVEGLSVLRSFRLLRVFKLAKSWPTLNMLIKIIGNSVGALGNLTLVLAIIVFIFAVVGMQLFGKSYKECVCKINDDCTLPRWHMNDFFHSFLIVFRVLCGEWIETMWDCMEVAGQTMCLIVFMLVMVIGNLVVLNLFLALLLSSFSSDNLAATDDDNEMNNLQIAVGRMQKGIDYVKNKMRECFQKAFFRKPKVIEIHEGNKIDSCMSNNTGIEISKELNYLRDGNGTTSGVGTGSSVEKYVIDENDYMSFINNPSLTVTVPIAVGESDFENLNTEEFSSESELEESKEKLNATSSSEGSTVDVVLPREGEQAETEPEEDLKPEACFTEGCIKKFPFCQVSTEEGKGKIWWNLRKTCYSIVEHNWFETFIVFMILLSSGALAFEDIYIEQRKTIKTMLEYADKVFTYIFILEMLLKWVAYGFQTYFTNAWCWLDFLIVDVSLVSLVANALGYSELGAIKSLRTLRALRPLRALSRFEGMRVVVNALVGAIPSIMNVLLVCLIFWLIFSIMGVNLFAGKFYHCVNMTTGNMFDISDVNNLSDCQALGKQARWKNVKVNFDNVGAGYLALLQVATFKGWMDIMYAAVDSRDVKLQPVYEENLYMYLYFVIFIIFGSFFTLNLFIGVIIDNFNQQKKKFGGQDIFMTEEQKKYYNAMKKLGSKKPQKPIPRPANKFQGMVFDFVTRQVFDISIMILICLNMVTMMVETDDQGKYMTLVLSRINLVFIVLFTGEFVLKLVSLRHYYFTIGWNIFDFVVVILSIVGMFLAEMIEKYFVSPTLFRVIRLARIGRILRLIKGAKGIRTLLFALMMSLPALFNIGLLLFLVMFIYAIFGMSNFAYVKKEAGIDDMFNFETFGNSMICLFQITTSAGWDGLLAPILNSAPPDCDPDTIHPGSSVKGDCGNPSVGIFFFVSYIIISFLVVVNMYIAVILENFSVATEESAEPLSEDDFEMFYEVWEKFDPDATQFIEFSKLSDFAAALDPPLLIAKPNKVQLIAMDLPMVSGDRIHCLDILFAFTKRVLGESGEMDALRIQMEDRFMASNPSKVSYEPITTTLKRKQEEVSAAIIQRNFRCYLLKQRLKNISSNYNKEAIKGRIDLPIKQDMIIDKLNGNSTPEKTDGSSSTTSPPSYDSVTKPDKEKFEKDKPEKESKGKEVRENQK
T1 sequence (O75762 whole entry): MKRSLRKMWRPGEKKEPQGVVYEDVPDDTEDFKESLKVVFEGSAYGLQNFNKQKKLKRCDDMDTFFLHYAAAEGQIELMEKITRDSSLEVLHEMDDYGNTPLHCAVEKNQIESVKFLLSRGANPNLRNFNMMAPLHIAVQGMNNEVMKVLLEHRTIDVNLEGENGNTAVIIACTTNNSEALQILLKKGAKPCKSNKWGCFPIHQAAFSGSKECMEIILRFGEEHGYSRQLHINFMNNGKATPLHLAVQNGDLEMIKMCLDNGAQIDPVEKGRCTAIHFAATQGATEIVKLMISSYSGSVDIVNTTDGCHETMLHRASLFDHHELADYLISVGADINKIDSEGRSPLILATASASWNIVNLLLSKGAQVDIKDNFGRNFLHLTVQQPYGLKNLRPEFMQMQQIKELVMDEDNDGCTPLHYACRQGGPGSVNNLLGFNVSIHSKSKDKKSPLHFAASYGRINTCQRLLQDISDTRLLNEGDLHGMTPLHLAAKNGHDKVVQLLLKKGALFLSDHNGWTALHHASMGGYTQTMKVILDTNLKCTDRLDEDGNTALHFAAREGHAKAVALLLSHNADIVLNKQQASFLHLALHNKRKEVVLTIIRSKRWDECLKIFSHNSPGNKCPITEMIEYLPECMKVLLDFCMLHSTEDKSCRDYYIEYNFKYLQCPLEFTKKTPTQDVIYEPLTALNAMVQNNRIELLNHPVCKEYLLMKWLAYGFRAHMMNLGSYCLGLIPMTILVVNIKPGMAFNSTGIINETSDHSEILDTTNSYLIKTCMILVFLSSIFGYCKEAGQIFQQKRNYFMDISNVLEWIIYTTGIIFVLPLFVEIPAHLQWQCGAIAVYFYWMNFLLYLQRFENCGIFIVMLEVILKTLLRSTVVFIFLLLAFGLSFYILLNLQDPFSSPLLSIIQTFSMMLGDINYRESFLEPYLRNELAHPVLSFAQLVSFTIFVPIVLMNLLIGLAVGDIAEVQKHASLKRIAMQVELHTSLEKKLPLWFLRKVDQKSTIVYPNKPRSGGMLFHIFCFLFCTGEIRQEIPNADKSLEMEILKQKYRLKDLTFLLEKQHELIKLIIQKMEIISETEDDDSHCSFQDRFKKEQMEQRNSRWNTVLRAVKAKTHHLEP

SMILES: CC(=O)N[C@@H](C(=O)N1CCN(c2cccc(C(F)(F)F)c2)CC1)c1ccccc1 [(R)-31, (R)-N-(2-Oxo-1-phenyl-2-(4-(3-(trifluoromethyl)phenyl)piperazin-1-yl)ethyl)acetamide]
- ED50 [1]: 44.2 mg/kg
- inhibition at 10 µM [2]: 13.3%

SMILES: CCCCNc1ccc(C(=O)OCCN(C)C)cc1 [Tetracaine, reference compound]
- inhibition at 3 µM [3, 6]: 0.75%
- inhibition at 3 µM [3, 7]: 3.41%
- inhibition at 3 µM [3, 8]: -1.92%
- inhibition at 30 µM [3, 6]: 9.85%
- inhibition at 30 µM [3, 7]: 10.3%
- inhibition at 30 µM [3, 8]: 9.44%
- inhibition at 300 µM [3, 6]: 84.8%
- inhibition at 300 µM [3, 7]: 81.8%
- inhibition at 300 µM [3, 8]: 87.8%
- inhibition at 3 µM [3, 9]: 56.1%
- inhibition at 3 µM [3, 10]: 56.1%
- inhibition at 3 µM [3, 11]: 56.1%
- inhibition at 30 µM [3, 9]: 100%
- inhibition at 30 µM [3, 10]: 98.9%
- inhibition at 30 µM [3, 11]: 101%
- inhibition at 300 µM [3, 9]: 101%
- inhibition at 300 µM [3, 10]: 101%
- inhibition at 300 µM [3, 11]: 102%
- inhibition at 3 µM [4, 12]: 3.28%
- inhibition at 3 µM [4, 13]: 4.33%
- inhibition at 3 µM [4, 14]: 2.23%
- inhibition at 30 µM [4, 12]: 16.2%
- inhibition at 30 µM [4, 13]: 20.5%
- inhibition at 30 µM [4, 14]: 11.9%
- inhibition at 300 µM [4, 12]: 89.7%
- inhibition at 300 µM [4, 13]: 91%
- inhibition at 300 µM [4, 14]: 88.4%
- inhibition at 3 µM [4, 15]: 54.9%
- inhibition at 3 µM [4, 16]: 58.3%
- inhibition at 3 µM [4, 17]: 51.5%
- inhibition at 30 µM [4, 15]: 95.7%
- inhibition at 30 µM [4, 16]: 96.6%
- inhibition at 30 µM [4, 17]: 94.8%
- inhibition at 300 µM [4, 15]: 101%
- inhibition at 300 µM [4, 16]: 102%
- inhibition at 300 µM [4, 17]: 100%
- inhibition at 3 µM [5, 18]: 4.79%
- inhibition at 3 µM [5, 19]: 7.73%
- inhibition at 3 µM [5, 20]: 1.85%
- inhibition at 30 µM [5, 18]: 34.7%
- inhibition at 30 µM [5, 19]: 34.7%
- inhibition at 30 µM [5, 20]: 34.7%
- inhibition at 300 µM [5, 18]: 75%
- inhibition at 300 µM [5, 19]: 68.2%
- inhibition at 300 µM [5, 20]: 81.8%
- inhibition at 3 µM [5, 21]: 86.4%
- inhibition at 3 µM [5, 22]: 80.8%
- inhibition at 3 µM [5, 23]: 91.9%
- inhibition at 30 µM [5, 21]: 99.2%
- inhibition at 30 µM [5, 22]: 95.7%
- inhibition at 30 µM [5, 23]: 103%
- inhibition at 300 µM [5, 21]: 97.9%
- inhibition at 300 µM [5, 22]: 91.3%
- inhibition at 300 µM [5, 23]: 104%
